Laboratory results taken from ChEMBL document CHEMBL3797190, “Development of 3,5-Dinitrobenzylsulfanyl-1,3,4-oxadiazoles and Thiadiazoles as Selective Antitubercular Agents Active Against Replicating and Nonreplicating Mycobacterium tuberculosis” (J Med Chem, 2016).
Converted amounts (≈) assume the structure as drawn. The source made the active and inactive calls. No cut-off for these calls is given here.

Legend:
[1] = system: Mycobacterium tuberculosis; assay: Inhibition of proteosynthesis in Mycobacterium tuberculosis H37Ra assessed as reduction of [14C]-methionine incorporation at 1 ug/ml preincubated for 1 hr followed by radiolabeling with [14C]-methionine for 24 hrs by scintillation spectrometry; type: functional
Mycobacterium avium = assay: Antimycobacterial activity against Mycobacterium avium CNCTC My 330/88 after 14 days by microdilution method; type: functional; conditions: CNCTC My 330/88, 336 h
Mycobacterium kansasii [2] = assay: Antimycobacterial activity against Mycobacterium kansasii CNCTC My 235/80 after 21 days by microdilution method; type: functional; conditions: CNCTC My 235/80, 504 h
Mycobacterium kansasii [3] = assay: Antimycobacterial activity against Mycobacterium kansasii CNCTC My 6509/96 after 7 days by microdilution method; type: functional; conditions: CNCTC My 6509/96, 168 h
[4] = Cytotoxicity against human HuH7 cells assessed as cell viability after 48 hrs by MTS assay; type: cell-based; conditions: Huh-7, 48 h
[5] = Cytotoxicity against MDCK2-MDR1 cells assessed as cell viability after 24 hrs by MTS assay; type: ADME, cell-based; conditions: Canis lupus familiaris, MDCK-II
[6] = Cytotoxicity against human HuH7 cells assessed as cell viability at 20 uM after 24 hrs by MTS assay; type: cell-based, Huh-7; conditions: read-out: Activity
[7] = Cytotoxicity against primary human hepatocytes assessed as cell viability at 20 uM after 48 hrs by MTS assay; type: cell-based, Hepatocyte; conditions: read-out: Activity
[8] = Cytotoxicity against human HepG2 cells assessed as cell viability at 50 uM after 48 hrs by MTS assay; type: cell-based; conditions: read-out: Activity
Salmonella typhimurium = assay: Mutagenic activity in Salmonella typhimurium TA98 assessed as reverse mutation at 30 uM by Ames test; type: toxicity, organism-based; conditions: salmonella enterica subsp. enterica serovar typhimurium
[9] = Selectivity index, ratio of IC50 for human HepG2 cells to MIC>99 for Mycobacterium tuberculosis CNCTC My 331/88; type: toxicity, cell-based; conditions: read-out: Selectivity Index
[10] = system: Staphylococcus epidermidis; assay: Antibacterial activity against Staphylococcus epidermidis H 6966/08 after 24 to 48 hrs by broth microdilution method; type: functional
Escherichia coli = assay: Antibacterial activity against Escherichia coli ATCC 8739 after 24 to 48 hrs by broth microdilution method; type: functional
Pseudomonas aeruginosa = assay: Antibacterial activity against Pseudomonas aeruginosa ATCC 9027 after 24 to 48 hrs by broth microdilution method; type: functional
[11] = system: Mycobacterium tuberculosis; assay: Antimycobacterial activity against Mycobacterium tuberculosis H37Ra assessed as growth inhibition at 1 ug/ml preincubated for 1 hr followed by radiolabeling with [14C]-uracil, [14C]-methionine for 24 hrs; type: functional, organism-based
[12] = Cytotoxicity against MDCK2-MDR1 cells assessed as cell viability after 48 hrs by MTS assay; type: ADME, cell-based; conditions: Canis lupus familiaris, MDCK-II
[13] = Chemical stability of compound in DMSO under open-vessel condition at 4 mg/ml at 60 degC after 3 days by 1H-NMR analysis; type: physicochemical; conditions: 72 h
PBL [14] = assay: Genotoxicity in human PBL at 0.6 to 12 mM by micronucleus test in presence of metabolic activation; type: toxicity, cell-based; conditions: 12000 µM
PBL [15] = assay: Genotoxicity in human PBL at 0.6 to 12 mM by micronucleus test in absence of metabolic activation; type: toxicity, cell-based; conditions: 12000 µM
PBL [16] = assay: Genotoxicity in human PBL at 0.6 to 12 mM by chromosome aberration test in presence of metabolic activation; type: toxicity, cell-based; conditions: 12000 µM
PBL [17] = assay: Genotoxicity in human PBL at 0.6 to 12 mM by chromosome aberration test in absence of metabolic activation; type: toxicity, cell-based; conditions: 12000 µM

## Cc1ccc(-c2nnc(SCc3cc([N+](=O)[O-])cc([N+](=O)[O-])c3)o2)cc1
[1]
  inhibition at 1 µg/mL: 37%
Mycobacterium avium
  MIC99: 8 µM (≈ 2.98 µg/mL)
Mycobacterium kansasii [2]
  MIC99: 0.06 µM (≈ 0.0223 µg/mL)
Mycobacterium kansasii [3]
  MIC99: 0.06 µM (≈ 0.0223 µg/mL)
[4]
  IC50: > 20 µM
[5]
  IC50: > 20 µM
[6]
  viability at 24 h, 20 µM: 101%
[7]
  viability at 48 h, 20 µM: 95.1%
[8]
  viability at 48 h, 50 µM: 95.5%
Salmonella typhimurium
  Activity: Non-toxic
[9]
  selectivity ratio: > 500
[10]
  MIC95: > 125 µM
Escherichia coli
  MIC95: > 125 µM
Pseudomonas aeruginosa
  MIC95: > 125 µM
[11]
  growth inhibition (GI): Active

## O=[N+]([O-])c1cc(CSc2nnc(-c3ccc(Cl)cc3)s2)cc([N+](=O)[O-])c1
[1]
  inhibition at 1 µg/mL: 20%
Mycobacterium avium
  MIC99: 8 µM (≈ 3.27 µg/mL)
Mycobacterium kansasii [2]
  MIC99: 0.5 µM (≈ 0.204 µg/mL)
Mycobacterium kansasii [3]
  MIC99: 0.125 µM (≈ 0.0511 µg/mL)
[5]
  IC50: > 20 µM
[12]
  IC50: > 20 µM
[6]
  viability at 24 h, 20 µM: 94%
[7]
  viability at 48 h, 20 µM: 102%
[8]
  viability at 48 h, 50 µM: 98.5%
Salmonella typhimurium
  Activity: Non-toxic
[13]
  Stability: Stable
[9]
  selectivity ratio: > 500
PBL [14]
  Activity: Non-toxic
PBL [15]
  Activity: Non-toxic
PBL [16]
  Activity: Non-toxic
PBL [17]
  Activity: Non-toxic
[10]
  MIC95: > 125 µM
Escherichia coli
  MIC95: > 125 µM
Pseudomonas aeruginosa
  MIC95: > 125 µM
[11]
  growth inhibition (GI): inactive
